Test results from ChEMBL document CHEMBL3046829, “Design, synthesis, and structureactivity relationship study of 5-amido-1-(2,4-dinitrophenyl)-1H-4-pyrazolecarbonitrils as DD-carboxypeptidase/penicillin-binding protein inhibitors with Gram-positive antibacterial activity” (2010).
Converted amounts (≈) assume the structure as drawn. The source made the active and inactive calls. The calls are words filed in the database; no cut-off is given here.

Key:
Staphylococcus aureus [1] = assay: Antibacterial activity against methicillin-susceptible Staphylococcus aureus ATCC 1112 after 18 hr by NCCLS dilution tube method; type: functional; conditions: for MIC: ATCC 1112, 18 h
Staphylococcus aureus [2] = assay: Antibacterial activity against methicillin-resistant Staphylococcus aureus after 18 hr by NCCLS dilution tube method; type: functional
Streptococcus pyogenes = assay: Antibacterial activity against Streptococcus pyogenes after 18 hr by NCCLS dilution tube method; type: functional
Streptococcus pneumoniae = assay: Antibacterial activity against Streptococcus pneumoniae after 18 hr by NCCLS dilution tube method; type: functional
Klebsiella pneumoniae [3] = assay: Antibacterial activity against Klebsiella pneumoniae at > 1000 uM after 18 hr by NCCLS dilution tube method; type: functional, organism-based
Pseudomonas aeruginosa [4] = assay: Antibacterial activity against Pseudomonas aeruginosa at > 1000 uM after 18 hr by NCCLS dilution tube method; type: functional, organism-based
Pseudomonas aeruginosa [5] = assay: Antibacterial activity against Pseudomonas aeruginosa after 18 hr by NCCLS dilution tube method; type: functional
Klebsiella pneumoniae [6] = assay: Antibacterial activity against Klebsiella pneumoniae after 18 hr by NCCLS dilution tube method; type: functional

SMILES: CC1=C(C(=O)O)N2C(=O)[C@@H](NC(=O)[C@H](N)c3ccccc3)[C@H]2SC1 [CEPHALEXIN ANHYDROUS]
- MIC (Staphylococcus aureus [1]): 4.6 µM (≈ 1.6 µg/mL)
- MIC (Staphylococcus aureus [2]): 72 µM (≈ 25 µg/mL)

SMILES: CN(C)c1ccc(C(=O)Nc2c(C#N)cnn2-c2ccc([N+](=O)[O-])cc2[N+](=O)[O-])cc1
- MIC (Staphylococcus aureus [1]): 3.8 µM (≈ 1.6 µg/mL)
- MIC (Staphylococcus aureus [2]): 3.8 µM (≈ 1.6 µg/mL)

SMILES: Cc1onc(-c2ccccc2Cl)c1C(=O)N[C@@H]1C(=O)N2[C@@H]1SC(C)(C)[C@@H]2C(=O)O [CLOXACILLIN]
- MIC (Staphylococcus aureus [1]): 13.7 µM (≈ 5.97 µg/mL)
- MIC (Staphylococcus aureus [2]): 94 µM (≈ 41 µg/mL)

SMILES: N#Cc1cnn(-c2ccc([N+](=O)[O-])cc2[N+](=O)[O-])c1N
- Activity (Streptococcus pyogenes): inactive
- Activity (Streptococcus pneumoniae): inactive
- Activity (Staphylococcus aureus [1]): inactive

SMILES: CC(=O)Nc1c(C#N)cnn1-c1ccc([N+](=O)[O-])cc1[N+](=O)[O-]
- MIC (Streptococcus pyogenes): 100 µg/mL (≈ 316 µM)
- MIC (Streptococcus pneumoniae): 100 µg/mL (≈ 316 µM)
- MIC (Staphylococcus aureus [1]): 316 µM (≈ 99.9 µg/mL)
- MIC (Staphylococcus aureus [2]): 632 µM (≈ 200 µg/mL)
- Activity (Klebsiella pneumoniae [3]): inactive
- Activity (Pseudomonas aeruginosa [4]): inactive

SMILES: N#Cc1cnn(-c2ccc([N+](=O)[O-])cc2[N+](=O)[O-])c1NC(=O)c1ccc(Br)cc1
- MIC (Staphylococcus aureus [1]): 27.4 µM (≈ 12.5 µg/mL)
- MIC (Staphylococcus aureus [2]): 27.4 µM (≈ 12.5 µg/mL)

SMILES: N#Cc1cnn(-c2ccc([N+](=O)[O-])cc2[N+](=O)[O-])c1NC(=O)c1ccccc1
- MIC (Staphylococcus aureus [1]): 132 µM (≈ 50 µg/mL)
- MIC (Staphylococcus aureus [2]): 264 µM (≈ 100 µg/mL)
- Activity (Klebsiella pneumoniae [3]): inactive
- Activity (Pseudomonas aeruginosa [4]): inactive

SMILES: N#Cc1cnn(-c2ccc([N+](=O)[O-])cc2[N+](=O)[O-])c1NC(=O)C12CC3CC(CC(C3)C1)C2
- MIC (Pseudomonas aeruginosa [5]): > 300 µM
- MIC (Staphylococcus aureus [1]): 57.4 µM (≈ 25.1 µg/mL)
- MIC (Staphylococcus aureus [2]): 57.4 µM (≈ 25.1 µg/mL)
- MIC (Klebsiella pneumoniae [6]): > 300 µM

SMILES: N#Cc1cnn(-c2ccc([N+](=O)[O-])cc2[N+](=O)[O-])c1NC(=O)C1CCCCC1
- MIC (Staphylococcus aureus [1]): 195 µM (≈ 75.1 µg/mL)
- MIC (Staphylococcus aureus [2]): 391 µM (≈ 150 µg/mL)
- Activity (Klebsiella pneumoniae [3]): inactive
- Activity (Pseudomonas aeruginosa [4]): inactive

SMILES: COc1ccc(C(=O)Nc2c(C#N)cnn2-c2ccc([N+](=O)[O-])cc2[N+](=O)[O-])cc1
- MIC (Staphylococcus aureus [1]): 31.9 µM (≈ 13 µg/mL)
- MIC (Staphylococcus aureus [2]): 15.3 µM (≈ 6.25 µg/mL)

SMILES: Cc1ccc(C(=O)Nc2c(C#N)cnn2-c2ccc([N+](=O)[O-])cc2[N+](=O)[O-])cc1
- MIC (Staphylococcus aureus [1]): 60.5 µM (≈ 23.7 µg/mL)
- MIC (Staphylococcus aureus [2]): 63.8 µM (≈ 25 µg/mL)

SMILES: N#Cc1cnn(-c2ccc([N+](=O)[O-])cc2[N+](=O)[O-])c1NC(=O)c1ccc(Cl)cc1
- MIC (Staphylococcus aureus [1]): 15.3 µM (≈ 6.32 µg/mL)
- MIC (Staphylococcus aureus [2]): 60.5 µM (≈ 25 µg/mL)

SMILES: N#Cc1cnn(-c2ccc([N+](=O)[O-])cc2[N+](=O)[O-])c1NC(=O)c1ccc(F)cc1
- MIC (Staphylococcus aureus [1]): 126 µM (≈ 50.1 µg/mL)
- MIC (Staphylococcus aureus [2]): 252 µM (≈ 100 µg/mL)
